According to patent publication US20040267001A1, “Genes encoding baeyer-villiger monooxygenases” (priority 2001, published 2004):

Columns and labels:
Experiment in all cases: chnB monooxygenase activity assay, NADPH oxidation at 340 nm, purified over-expressed enzyme
Format in all cases: biochemical
[1] = test system: Acidovorax sp. CHX chnB monooxygenase; conditions: 1.25 mM substrate, pH 7.5; ND = No Activity Detected
From the text: (§1) Following amplification, the chnB gene fragments were cloned into pTrcHis-TOPO TA vectors with either an N-terminal tail or C-terminal tail, as provided by the vector sequence (N-terminal tail for Brevibacterium sp. HCU, Rhodococcus sp. phi1, Rhodococcus sp. phi2, and Arthrobacter sp. BP2 monooxygenases; C-terminal tail for Acinetobacter sp. SE19 and Acidovorax sp. CHX monooxygenases). These vectors were transformed into E. coli, with transformants grown in Luria-Bertani broth supplemented with ampicillin (100 ug/ml) and riboflavin (0.1 ug/ml) at 30° C. until the absorbance at 600 nm (A600) reached 0.5. When the A600 was reached, the temperature was shifted to 16° C.
(§2) The encoded monooxygenase sequences were expressed upon addition of IPTG to the culture media, 30 min after the temperature shift to 16° C. The cultures were grown further ovemight (14 hrs) and harvested by centrifugation in a cold centrifuge. The cells were treated with lysozyme (100 mg/ml) for 30 min on ice and sonicated. Following sonication, cell extracts were centrifuged and the supernatant was equilibrated with Ni-NTA resin (Qiagen, Valencia, Calif.) for 1 hr at 4° C. Protein bound resin was washed successively with increasing concentrations of imidazole buffer until the protein of interest was released from the resin. The purified protein was concentrated and the buffer exchanged to remove the imidazole. The protein concentration was adjusted to 1 ug/ml.
(§3) Compounds were selected on the basis of previous observations by van der Werf (J. Biochem. 347:693-701 (2000)) and Miyamoto et al. (Biochimica et Biophysica Acta 1251: 115-124 (1995)) and by searches for the ketone substructure.
(§4) All compounds were obtained from Sigma-Aldrich with only two exceptions. Levoglucosenone was obtained from Toronto Research Chemicals, Inc. and dimethyl-2-piperidone was prepared according to U.S. Pat. No. 6,077,955. For enzyme assays all compounds were dissolved to a concentration of 0.1 M in methanol, with the exceptions of norcamphor (dissolved in ethyl acetate), cyclododecanone, cycltridecanone and cyclopentadecanone (dissolved in propanol), and levoglucosenone (dissolved with acetone).
(§5) The monooxygenase activity of each over-expressed enzyme was assayed spectrophotometrically at 340 nm by monitoring the oxidation of NADPH. Assays were performed in individual quartz cuvettes, with a pathlength of 1 cm. […] An Ultrospec 4000 (Pharmacia Biotech, Cambridge, England) was used to read the absorbance of the samples over a two to ten minute time period and the SWIFT (Pharmacia Biotech) program was used to calculate the slope of the reduction in absorbance over time. For the Brevibactedum sp. […] Monooxygenase activity of each over-expressed enzyme is shown in Table 5, with respect to each ketone substrate. The specific activity values listed are given in umol/min/mg. The notation “ND” refers to “No Activity Detected”.

[2] = biological target: T1, Acinetobacter sp. SE19 chnB monooxygenase (Acinetobacter sp., UniProt Q9F7E4); conditions: 1.25 mM substrate, pH 7.5; ND = No Activity Detected
T1 construct: isolated full length BVMO genes from Brevibacterium sp; HCU, Acinetobacter SE19; C-terminal tail provided by the pTrcHis-TOPO vector (C); made in house; host or cells: E. coli
From the text: as §1, §2, §3, §4, §5

[3] = test system: Arthrobacter sp. BP2 chnB monooxygenase; conditions: 1.25 mM substrate, pH 7.5; ND = No Activity Detected
From the text: as §1, §2, §3, §4, §5

[4] = test system: Brevibacterium sp. HCU chnB1 monooxygenase; conditions: 1.25 mM substrate, pH 7.5; ND = No Activity Detected
From the text: as §1, §2, §3, §4, §5

[5] = test system: Brevibacterium sp. HCU chnB2 monooxygenase; conditions: 1.25 mM substrate, pH 7.5; rates multiplied by a factor of 3.25 to adjust for decrease in activity due to storage; ND = No Activity Detected
From the text: as §1, §2, §3, §4, §5

[6] = test system: Rhodococcus sp. phi1 chnB monooxygenase; conditions: 1.25 mM substrate, pH 7.5; ND = No Activity Detected
From the text: as §1, §2, §3, §4, §5

[7] = test system: Rhodococcus sp. phi2 chnB monooxygenase; conditions: 1.25 mM substrate, pH 7.5; ND = No Activity Detected
From the text: as §1, §2, §3, §4, §5

| Compound | Specific Activity of Monooxygenase Enzymes Against Various Ketone Substrates, sp. CHX chnB [1] | Specific Activity of Monooxygenase Enzymes Against Various Ketone Substrates, sp. SE19 chnB [2] | Specific Activity of Monooxygenase Enzymes Against Various Ketone Substrates, sp. BP2 chnB [3] | Specific Activity of Monooxygenase Enzymes Against Various Ketone Substrates, sp. HCU chnB1 [4] | Specific Activity of Monooxygenase Enzymes Against Various Ketone Substrates, sp. HCU chnB2 [5] | Specific Activity of Monooxygenase Enzymes Against Various Ketone Substrates, sp. phi1 chnB [6] | Specific Activity of Monooxygenase Enzymes Against Various Ketone Substrates, sp. phi2 chnB [7] |
| --- | --- | --- | --- | --- | --- | --- | --- |
| O=C1CCC(=O)CC1 [1,4-cyclohexanedione] | 0.794 µmol/min/mg | 8.346 µmol/min/mg | 3.994 µmol/min/mg | 3.405 µmol/min/mg | 1.123 µmol/min/mg | 3.302 µmol/min/mg | 6.150 µmol/min/mg |
| CC1CCCCC1=O (stereo not shown) [2-methyl-cyclohexanone] | 0.627 µmol/min/mg | 9.990 µmol/min/mg | 4.205 µmol/min/mg | 2.714 µmol/min/mg | 1.622 µmol/min/mg | 4.774 µmol/min/mg | 5.952 µmol/min/mg |
| CC1CCCC1=O (stereo not shown) [2-methyl-cyclopentanone] | 0.627 µmol/min/mg | 8.378 µmol/min/mg | 3.514 µmol/min/mg | 1.395 µmol/min/mg | 0.874 µmol/min/mg | 3.392 µmol/min/mg | 6.445 µmol/min/mg |
| O=C1CCCCC1c1ccccc1 (stereo not shown) [2-phenyl-cyclohexanone] | 0.192 µmol/min/mg | 5.370 µmol/min/mg | – | 1.459 µmol/min/mg | 0.104 µmol/min/mg | 1.050 µmol/min/mg | 0.730 µmol/min/mg |
| O=C1CCCCCC1 [Cycloheptanone] | 0.608 µmol/min/mg | 8.422 µmol/min/mg | 3.846 µmol/min/mg | 0.646 µmol/min/mg | 0.374 µmol/min/mg | 3.622 µmol/min/mg | 6.234 µmol/min/mg |
| O=C1C=CCCC1 [Cyclohex-2-ene-1-one] | 0.666 µmol/min/mg | 5.357 µmol/min/mg | 2.739 µmol/min/mg | 0.435 µmol/min/mg | 0.541 µmol/min/mg | 2.694 µmol/min/mg | 3.091 µmol/min/mg |
| O=C1CCCCC1 [Cyclohexanone] | 0.397 µmol/min/mg | 6.349 µmol/min/mg | 3.565 µmol/min/mg | 2.765 µmol/min/mg | 1.726 µmol/min/mg | 3.680 µmol/min/mg | 3.750 µmol/min/mg |
| O=C1CC2CC[C@H]1C2 [Norcamphor] | 0.166 µmol/min/mg | 4.474 µmol/min/mg | 2.842 µmol/min/mg | 0.410 µmol/min/mg | 1.331 µmol/min/mg | 1.504 µmol/min/mg | 2.816 µmol/min/mg |
| O=C1Cc2ccccc2N1 [Oxindole] | 0.307 µmol/min/mg | 7.091 µmol/min/mg | 4.845 µmol/min/mg | 2.438 µmol/min/mg | 0.229 µmol/min/mg | 3.411 µmol/min/mg | 4.858 µmol/min/mg |
| CC(=O)/C=C/C1=C(C)CCCC1(C)C [beta-ionone] | 0.544 µmol/min/mg | 3.347 µmol/min/mg | 1.485 µmol/min/mg | 0.109 µmol/min/mg | 0.374 µmol/min/mg | 2.707 µmol/min/mg | 0.544 µmol/min/mg |
| dimethy-2-piperidone | 0.557 µmol/min/mg | 8.384 µmol/min/mg | 4.154 µmol/min/mg | 2.822 µmol/min/mg | 0.354 µmol/min/mg | 3.539 µmol/min/mg | 6.509 µmol/min/mg |
